Measured values as given in patent publication US20190308963A1, “HETEROCYCLIC COMPOUNDS AND USES THEREOF” (priority 2018, published 2019).

Tests used:
[1] = target: PI3Kδ (p110δ/p85α) (Homo sapiens, UniProt O00329); experiment: cell-free PI3K HTRF assay, PI3Kδ
Experimental: (§4) Exemplary compounds of the invention were tested for inhibitory activity or potency against class I PI3Ks (p110α/p85α, p110β/p85α, p110δ/p85α and p110γ) using a cell-free based PI3K HTRF assay. This assay was used to detect the formation of the product 3,4,5-inositol triphosphate molecule (PIP3) by displacement of biotin-PIP3 from an energy transfer complex consisting of Europium labeled anti-GST monoclonal antibody, a GST-tagged pleckstrin homology (PH) domain, biotinylated PIP3 and Streptavidin-Allophycocyanin (APC). […] The PIP3 product formed by human PI3-Kinase activity displaces biotin-PIP3 from the complex resulting in a loss of energy transfer and thus a decrease in signal.
(§5) Human class I PI3K isoforms were co-expressed in a Baculovirus infected cell expression system. The PI3K isoforms were assayed in the presence of HEPES (50 mM, pH 7.0), NaN3 (0.02%), BSA (0.01%), orthovanadate (0.1 mM), and DMSO (1%). The exemplary compounds dissolved in DMSO were delivered into the kinase reaction mixture by Acoustic technology (Echo550; nanolitter range), and were pre-incubated for 10 min at room temperature before adding ATP (10 μM) to initiate the reaction. […] The emission ratio is converted into μM PIP3 production based on PIP3 standard curves, and the nonlinear regression to obtain the standard curve and IC50 values are performed using Graphpad Prism software.

[2] = target: T1, BRD4 (BD1) (Homo sapiens, UniProt O60885); experiment: AlphaScreen FRET binding assay, BRD4 (BD1); details: read-out: IC50 value for the inhibition of BRD4 (BD1)
T1 construct: recombinant human BRD4 (BD1; aa 44-170); purchased Reaction Biology Corporation (contract assay service); host or cells: E. coli
Experimental: (§1) Exemplary compounds of the invention were tested for inhibitory activity or potency against BRD4 (BD1) and BRD4 (BD2) using AlphaScreen FRET binding assay, and exemplary compounds of the invention were further tested for inhibitory activity or potency against class I PI3Ks (p110α/p85α, p110β/p85α, p110δ/p85α and p110γ) using a cell-free based .P13K HTRF assay. All assays were performed at Reaction Biology Corporation, One Great Valley Parkway, Suite 2, Malvem, Pa.
(§2) Exemplary compounds of the invention were tested for inhibitory activity or potency against BRD4 (BD1) and BRD4 (BD2) using AlphaScreen FRET binding assay. […] Briefly, donor beads coated with streptavidin were incubated with biotinylated histone H4 peptide (residues 1-21) containing KAc (K5/^8/12/16Ac). In the absence of inhibitor, the. His-tagged reader domain of BRD4 binds to KAc-histone H4 peptide, thereby recruiting acceptor beads coated with a nickel chelator. Binding potential is assessed by detecting light emission (520-620 nm) from acceptor beads following laser excitation (680 nm) of a photosensitizer within the donor beads that converts ambient oxygen to singlet oxygen.
(§3) All IC50 values were reported in unites of nM.

[3] = system: class I PI3Ks; experiment: summary in words of the class I PI3K (and BRD4) results; type: biochemical, human; details: for activity against PI3K in words: novel BRD inhibitors without PI3K activity; for overall activity in words (class I PI3Ks and BRD4): against both divergent targets
Experimental: Exemplary compounds of the invention were tested for inhibitory activity or potency against class I PI3Ks (p110α/p85α, p110β/p85α, p110δ/p85α and p110γ) using a cell-free based PI3K HTRF assay. This assay was used to detect the formation of the product 3,4,5-inositol triphosphate molecule (PIP3) by displacement of biotin-PIP3 from an energy transfer complex consisting of Europium labeled anti-GST monoclonal antibody, a GST-tagged pleckstrin homology (PH) domain, biotinylated PIP3 and Streptavidin-Allophycocyanin (APC). Excitation of Europium in the complex results in an energy transfer to the APC and a fluorescent emission at 665 nm. The PIP3 product formed by human PI3-Kinase activity displaces biotin-PIP3 from the complex resulting in a loss of energy transfer and thus a decrease in signal.
Human class I PI3K isoforms were co-expressed in a Baculovirus infected cell expression system. The PI3K isoforms were assayed in the presence of HEPES (50 mM, pH 7.0), NaN3 (0.02%), BSA (0.01%), orthovanadate (0.1 mM), and DMSO (1%). The exemplary compounds dissolved in DMSO were delivered into the kinase reaction mixture by Acoustic technology (Echo550; nanolitter range), and were pre-incubated for 10 min at room temperature before adding ATP (10 μM) to initiate the reaction. After 30 min at 30° C., the reactions were quenched with a stop solution, incubated overnight with a detection mixture before measuring HTRF (Ex: 320 nm; Em: 615/665 nm). The emission ratio is converted into μM PIP3 production based on PIP3 standard curves, and the nonlinear regression to obtain the standard curve and IC50 values are performed using Graphpad Prism software.
All IC50 values were reported in unites of nM. Empty cells indicate no inhibition or compound activity that could not be fit to an IC50 curve.
Dual inhibitors of class I PI3Ks and BRD4 are rare because class I PI3Ks and BRD4 are two structurally and functionally unrelated targets. […] The unexpected dual inhibitory activity or potency against both divergent targets is attributed to not only the unusual overall shape of the molecules of the present invention (as described in U.S. Pat. No. 9,637,488), but also the specific KAc-mimicking groups selected and their position incorporated into the quinoline ring.

[4] = target: T2, BRD4 (BD2) (Homo sapiens, UniProt O60885); experiment: AlphaScreen FRET binding assay, BRD4 (BD2); details: read-out: IC50 value for the inhibition of BRD4 (BD2)
T2 construct: recombinant human BRD4 (BD2; aa 349-460); purchased Reaction Biology Corporation (contract assay service); host or cells: E. coli
Experimental: as §1, §2, §3

[5] = target: PI3Kα (p110α/p85α) (Homo sapiens, UniProt P42336); experiment: cell-free PI3K HTRF assay, PI3Kα
Sequence of PI3Kα (p110α/p85α) (P42336 whole entry): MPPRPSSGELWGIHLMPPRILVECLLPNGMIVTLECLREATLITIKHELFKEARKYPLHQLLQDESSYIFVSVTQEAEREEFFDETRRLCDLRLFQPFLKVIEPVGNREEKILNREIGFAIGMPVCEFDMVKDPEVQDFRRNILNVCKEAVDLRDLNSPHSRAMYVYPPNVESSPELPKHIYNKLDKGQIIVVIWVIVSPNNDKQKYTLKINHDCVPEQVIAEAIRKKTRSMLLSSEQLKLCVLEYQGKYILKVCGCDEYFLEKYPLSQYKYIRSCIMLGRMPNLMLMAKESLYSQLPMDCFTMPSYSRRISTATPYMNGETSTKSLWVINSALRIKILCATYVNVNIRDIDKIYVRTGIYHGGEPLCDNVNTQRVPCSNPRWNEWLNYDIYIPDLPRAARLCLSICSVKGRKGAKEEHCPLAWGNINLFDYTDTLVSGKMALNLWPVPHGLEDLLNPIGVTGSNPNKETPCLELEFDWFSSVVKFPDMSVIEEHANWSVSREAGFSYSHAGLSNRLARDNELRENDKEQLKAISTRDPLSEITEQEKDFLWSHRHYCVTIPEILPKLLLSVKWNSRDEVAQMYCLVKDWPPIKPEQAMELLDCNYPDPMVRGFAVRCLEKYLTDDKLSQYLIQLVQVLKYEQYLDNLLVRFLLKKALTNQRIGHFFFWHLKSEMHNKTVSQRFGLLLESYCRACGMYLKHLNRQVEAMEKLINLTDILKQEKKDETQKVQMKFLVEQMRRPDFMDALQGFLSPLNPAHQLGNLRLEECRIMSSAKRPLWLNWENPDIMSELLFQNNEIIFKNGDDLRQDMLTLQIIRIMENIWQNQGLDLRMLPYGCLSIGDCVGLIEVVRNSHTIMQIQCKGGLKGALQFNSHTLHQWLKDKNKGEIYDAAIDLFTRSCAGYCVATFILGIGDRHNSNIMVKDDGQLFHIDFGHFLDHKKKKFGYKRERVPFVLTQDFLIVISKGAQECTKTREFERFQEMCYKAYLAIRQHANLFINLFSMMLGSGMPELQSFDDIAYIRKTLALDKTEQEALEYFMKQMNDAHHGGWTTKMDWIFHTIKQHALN
Sequence of PI3Kα (p110α/p85α) (P27986 whole entry partner): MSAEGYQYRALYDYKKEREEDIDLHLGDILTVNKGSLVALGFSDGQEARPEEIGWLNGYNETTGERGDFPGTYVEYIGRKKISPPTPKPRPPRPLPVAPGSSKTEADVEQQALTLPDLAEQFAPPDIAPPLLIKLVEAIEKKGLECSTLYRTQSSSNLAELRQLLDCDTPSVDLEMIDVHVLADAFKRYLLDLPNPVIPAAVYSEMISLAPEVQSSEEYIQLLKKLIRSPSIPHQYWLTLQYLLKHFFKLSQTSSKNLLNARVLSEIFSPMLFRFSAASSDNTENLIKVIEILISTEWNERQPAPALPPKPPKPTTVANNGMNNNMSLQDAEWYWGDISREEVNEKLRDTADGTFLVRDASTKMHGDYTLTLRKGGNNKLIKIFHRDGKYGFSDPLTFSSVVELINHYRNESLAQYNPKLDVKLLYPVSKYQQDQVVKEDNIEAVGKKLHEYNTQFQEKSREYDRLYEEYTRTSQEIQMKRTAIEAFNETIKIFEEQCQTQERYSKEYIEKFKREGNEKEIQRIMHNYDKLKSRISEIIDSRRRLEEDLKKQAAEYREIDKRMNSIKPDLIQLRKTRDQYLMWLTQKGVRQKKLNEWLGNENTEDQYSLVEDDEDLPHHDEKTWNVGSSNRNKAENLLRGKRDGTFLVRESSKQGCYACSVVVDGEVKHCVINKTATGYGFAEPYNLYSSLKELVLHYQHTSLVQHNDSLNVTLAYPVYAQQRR
Experimental: as §4, §5

[6] = target: PI3Kβ (p110β/p85α) (Homo sapiens, UniProt P42338); experiment: cell-free PI3K HTRF assay, PI3Kβ
Sequence of PI3Kβ (p110β/p85α) (P42338 whole entry): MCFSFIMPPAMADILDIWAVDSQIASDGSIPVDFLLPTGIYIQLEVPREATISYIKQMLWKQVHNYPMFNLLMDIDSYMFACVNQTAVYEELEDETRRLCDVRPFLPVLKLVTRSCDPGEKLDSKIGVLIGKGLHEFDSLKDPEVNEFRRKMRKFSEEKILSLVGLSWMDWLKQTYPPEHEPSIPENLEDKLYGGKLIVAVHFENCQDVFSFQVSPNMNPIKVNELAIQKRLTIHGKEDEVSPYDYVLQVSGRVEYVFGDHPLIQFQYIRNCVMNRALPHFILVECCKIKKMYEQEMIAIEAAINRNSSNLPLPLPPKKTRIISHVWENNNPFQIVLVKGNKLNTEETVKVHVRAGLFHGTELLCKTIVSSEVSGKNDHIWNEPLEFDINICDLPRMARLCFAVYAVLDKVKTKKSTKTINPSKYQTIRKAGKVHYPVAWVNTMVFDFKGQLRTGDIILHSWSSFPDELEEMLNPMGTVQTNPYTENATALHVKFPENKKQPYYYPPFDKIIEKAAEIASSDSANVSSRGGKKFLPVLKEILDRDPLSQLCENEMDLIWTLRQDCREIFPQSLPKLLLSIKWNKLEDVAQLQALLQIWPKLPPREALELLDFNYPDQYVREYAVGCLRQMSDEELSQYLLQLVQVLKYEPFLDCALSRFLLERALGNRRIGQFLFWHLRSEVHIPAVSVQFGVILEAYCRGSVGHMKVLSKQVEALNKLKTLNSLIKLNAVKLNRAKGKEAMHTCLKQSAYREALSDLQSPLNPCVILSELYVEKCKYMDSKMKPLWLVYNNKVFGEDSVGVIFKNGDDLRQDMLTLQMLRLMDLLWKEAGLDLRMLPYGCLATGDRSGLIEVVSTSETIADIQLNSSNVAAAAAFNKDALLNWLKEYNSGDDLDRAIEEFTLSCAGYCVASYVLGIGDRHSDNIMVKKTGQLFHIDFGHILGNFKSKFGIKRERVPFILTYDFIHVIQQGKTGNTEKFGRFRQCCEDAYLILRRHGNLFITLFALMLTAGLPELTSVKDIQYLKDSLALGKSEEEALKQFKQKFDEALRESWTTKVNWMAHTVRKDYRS
Sequence of PI3Kβ (p110β/p85α) (P27986 whole entry partner): as the sequence (P27986 whole entry partner) above
Experimental: as §4, §5

[7] = target: PI3Kγ (p110γ) (Homo sapiens, UniProt P48736); experiment: cell-free PI3K HTRF assay, PI3Kγ
Sequence of PI3Kγ (p110γ) (P48736 whole entry): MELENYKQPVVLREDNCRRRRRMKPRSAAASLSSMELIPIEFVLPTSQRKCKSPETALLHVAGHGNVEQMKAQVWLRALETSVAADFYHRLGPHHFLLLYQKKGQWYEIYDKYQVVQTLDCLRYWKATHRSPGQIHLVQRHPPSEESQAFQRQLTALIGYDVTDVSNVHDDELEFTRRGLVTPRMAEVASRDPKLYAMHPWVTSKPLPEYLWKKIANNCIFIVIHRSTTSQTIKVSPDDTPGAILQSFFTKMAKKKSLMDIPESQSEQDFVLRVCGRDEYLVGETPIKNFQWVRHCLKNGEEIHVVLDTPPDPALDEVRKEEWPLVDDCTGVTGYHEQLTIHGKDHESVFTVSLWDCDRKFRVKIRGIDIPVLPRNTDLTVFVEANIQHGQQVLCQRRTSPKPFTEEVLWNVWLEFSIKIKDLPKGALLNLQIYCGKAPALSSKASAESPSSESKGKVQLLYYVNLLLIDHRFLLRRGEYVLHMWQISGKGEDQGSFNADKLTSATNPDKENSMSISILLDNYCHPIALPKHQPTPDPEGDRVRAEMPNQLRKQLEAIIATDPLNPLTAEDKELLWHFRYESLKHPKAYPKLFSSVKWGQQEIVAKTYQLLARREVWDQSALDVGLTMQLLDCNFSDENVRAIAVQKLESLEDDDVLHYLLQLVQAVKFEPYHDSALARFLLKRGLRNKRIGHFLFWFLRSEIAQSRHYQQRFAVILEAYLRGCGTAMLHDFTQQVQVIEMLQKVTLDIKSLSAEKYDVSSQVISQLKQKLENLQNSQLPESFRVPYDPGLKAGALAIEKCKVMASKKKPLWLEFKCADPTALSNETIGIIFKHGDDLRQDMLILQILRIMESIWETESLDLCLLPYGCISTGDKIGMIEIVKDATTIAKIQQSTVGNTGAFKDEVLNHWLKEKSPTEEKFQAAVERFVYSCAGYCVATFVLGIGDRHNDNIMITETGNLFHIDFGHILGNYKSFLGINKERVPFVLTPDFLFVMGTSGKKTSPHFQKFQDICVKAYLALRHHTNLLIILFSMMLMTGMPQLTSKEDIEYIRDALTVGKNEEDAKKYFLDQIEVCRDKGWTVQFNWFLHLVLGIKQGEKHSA
Experimental: as §4, §5

Sequence of PI3Kδ (p110δ/p85α) (O00329 whole entry): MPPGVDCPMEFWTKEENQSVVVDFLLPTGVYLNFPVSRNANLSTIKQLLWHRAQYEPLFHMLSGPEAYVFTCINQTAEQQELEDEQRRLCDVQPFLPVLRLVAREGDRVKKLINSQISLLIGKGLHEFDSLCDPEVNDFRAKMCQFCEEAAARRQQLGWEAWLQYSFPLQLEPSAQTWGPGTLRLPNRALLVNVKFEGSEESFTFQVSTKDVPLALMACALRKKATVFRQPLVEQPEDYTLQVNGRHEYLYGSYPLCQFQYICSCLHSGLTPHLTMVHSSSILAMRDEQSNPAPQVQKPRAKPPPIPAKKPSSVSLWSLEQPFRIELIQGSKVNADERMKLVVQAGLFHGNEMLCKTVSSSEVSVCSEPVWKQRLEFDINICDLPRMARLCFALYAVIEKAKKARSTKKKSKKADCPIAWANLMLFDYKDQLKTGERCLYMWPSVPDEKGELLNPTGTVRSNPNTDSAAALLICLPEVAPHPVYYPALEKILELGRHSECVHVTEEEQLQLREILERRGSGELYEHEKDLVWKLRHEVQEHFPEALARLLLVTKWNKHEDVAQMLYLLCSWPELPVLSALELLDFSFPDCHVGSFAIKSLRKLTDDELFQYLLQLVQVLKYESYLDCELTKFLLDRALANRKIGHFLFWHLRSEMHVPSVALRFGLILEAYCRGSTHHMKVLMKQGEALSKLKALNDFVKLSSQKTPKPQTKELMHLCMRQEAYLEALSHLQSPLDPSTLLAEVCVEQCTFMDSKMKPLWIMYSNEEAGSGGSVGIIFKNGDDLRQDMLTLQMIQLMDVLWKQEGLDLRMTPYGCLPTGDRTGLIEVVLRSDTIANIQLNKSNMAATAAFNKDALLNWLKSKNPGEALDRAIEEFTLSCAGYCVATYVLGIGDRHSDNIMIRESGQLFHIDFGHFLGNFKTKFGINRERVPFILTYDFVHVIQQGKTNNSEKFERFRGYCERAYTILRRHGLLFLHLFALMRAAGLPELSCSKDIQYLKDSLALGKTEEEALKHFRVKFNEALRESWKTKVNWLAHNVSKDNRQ
Sequence of PI3Kδ (p110δ/p85α) (P27986 whole entry partner): as the sequence (P27986 whole entry partner) above

Structure (SMILES) | IC50 [1] [nM] | IC50 [2] [nM] | IC50 [4] [nM] | IC50 [5] [nM] | IC50 [6] [nM] | IC50 [7] [nM] | activity against PI3K in words [3] | overall activity in words (class I PI3Ks and BRD4) [3]
Cc1noc(C)c1-c1nc2c(C)cccc2cc1C1CCCN1c1ncnc(N)c1C#N (stereo not drawn) [Compound 3, 4-amino-6-(2-(2-(3,5-dimethylisoxazol-4-yl)-8-methylquinolin-3-yl)pyrrolidin-1-yl)pyrimidine-5-carbonitrile] | 0.523 |  |  |  |  |  |  | 
Cn1cc(-c2ccc3cc(C4CCCN4c4ncnc(N)c4C#N)c(N4CCOCC4)nc3c2)c2cc[nH]c2c1=O (stereo not drawn) [Compound 6] |  | 3.5 |  |  |  |  | PI3K-inactive | 
Cc1cc(-c2ccc3cc(C4CCCN4c4ncnc(N)c4C#N)c(N4CCOCC4)nc3c2)cn(C)c1=O (stereo not drawn) [Compound 8] |  | 28 | 7.7 |  |  |  | PI3K-inactive | 
Cc1noc(C)c1-c1cccc2cc(C3CCCN3c3ncnc(N)c3C#N)c(N3CCOCC3)nc12 (stereo not drawn) [Compound 9] | 3.25 | 9460 |  |  |  |  |  | 
Cc1nnc2ccc(-c3cccc4cc(C5CCCN5c5ncnc(N)c5C#N)c(N5CCOCC5)nc34)nn12 (stereo not drawn) [Compound 10] | 30.5 | 3980 |  |  |  |  |  | 
Cc1cc(-c2c(F)ccc3cc(C4CCCN4c4ncnc(N)c4C#N)c(N4CCOCC4)nc23)cn(C)c1=O (stereo not drawn) [Compound 15] |  | 1250 | 680 |  |  |  |  | 
Cc1cc(-c2ccc(F)c3cc(C4CCCN4c4ncnc(N)c4C#N)c(N4CCOCC4)nc23)cn(C)c1=O (stereo not drawn) [Compound 16] |  |  | 4970 |  |  |  |  | inactive
Cc1cc(-c2ccc(F)c3cc(C4CCCN4c4nc(N)nc(N)c4C#N)c(N4CCOCC4)nc23)cn(C)c1=O (stereo not drawn) [Compound 17] |  |  | 745 |  |  | > 10000 |  | 
CC(C)Nc1nc2c(-c3cn(C)c(=O)c4[nH]ccc34)cccc2cc1C1CCCN1c1ncnc(N)c1C#N (stereo not drawn) [Compound 22] | 19.3 | 636 | 74.5 | 544 | 3550 | 171 |  | 
Cc1cc(-c2cccc3cc([C@@H]4CCCN4c4ncnc(N)c4C#N)c(N4CCOCC4)nc23)cn(C)c1=O [Compound 23] | 0.73 | 26.7 | 12.9 | 153 | 191 | 13 |  | 
Cn1cc(-c2cccc3cc(CNc4nc(N)nc(N)c4C#N)c(N4CCOCC4)nc23)c2cc[nH]c2c1=O [Compound 25] | 1.98 | 55.3 | 20.7 | 20.5 | 43.3 | 16.7 |  | 
Cc1cc(-c2cccc3cc(C4CCCN4c4ncnc(N)c4C#N)c(-c4cccnc4)nc23)cn(C)c1=O (stereo not drawn) [Compound 29] | 1.23 | 37.9 | 46.6 | 867 | 263 | 19.2 |  | 

More lines, main results first:

IC50 [1] [nM] | IC50 [2] [nM] | IC50 [4] [nM] | IC50 [5] [nM] | IC50 [6] [nM] | IC50 [7] [nM] | Structure (SMILES) | activity against PI3K in words [3] | overall activity in words (class I PI3Ks and BRD4) [3]
0.66 | 8000 |  |  |  |  | Cc1nnc2ccc(N3CCN(c4nc5cc(F)ccc5cc4C4CCCN4c4ncnc(N)c4C#N)CC3)nn12 (stereo not drawn) [Compound 4, 4-amino-6-(2-(7-fluoro-2-(4-(3-methyl-[1,2,4]triazolo[4,3-b]pyridazin-6-yl)piperazin-1-yl)quinolin-3-yl)pyrrolidin-1-yl)pyrimidine-5-carbonitrile] |  | 
 | 694 |  |  |  |  | Cc1nnc2ccc(-c3ccc4cc(C5CCCN5c5ncnc(N)c5C#N)c(N5CCOCC5)nc4c3)nn12 (stereo not drawn) [Compound 7] |  | 
5.34 | 24 | 86 | 247 | 567 | 56.6 | Cc1cc(-c2cccc3cc(C4CCCN4c4ncnc(N)c4C#N)c(N4CCOCC4)nc23)cn(C)c1=O (stereo not drawn) [Compound 11] |  | 
5 | 35 |  |  |  |  | Cn1cc(-c2cccc3cc(C4CCCN4c4ncnc(N)c4C#N)c(N4CCOCC4)nc23)c2cc[nH]c2c1=O (stereo not drawn) [Compound 12] |  | 
 | 799 | 12.4 |  |  | > 10000 | Cc1cc(-c2c(F)ccc3cc(C4CCCN4c4nc(N)nc(N)c4C#N)c(N4CCOCC4)nc23)cn(C)c1=O (stereo not drawn) [Compound 13] |  | inactive
 | > 10000 | 4210 |  |  |  | Cc1cc(-c2c(F)ccc3cc(C4CCCN4c4nc(N)nc5[nH]cnc45)c(N4CCOCC4)nc23)cn(C)c1=O (stereo not drawn) [Compound 14] |  | 
1.89 | 84.5 | 85.2 | 4270 | 874 | 39.2 | Cc1cc(-c2cccc3cc(C4CCCN4c4ncnc(N)c4C#N)c(N4CCCCC4)nc23)cn(C)c1=O (stereo not drawn) [Compound 18] |  | 
3.04 | 23.9 | 19.3 | 535 | 596 | 79.8 | Cc1cc(-c2cccc3cc(C4CCCN4c4ncnc(N)c4C#N)c(N(C)C)nc23)cn(C)c1=O (stereo not drawn) [Compound 19] |  | 
3.68 | 24.8 | 18.1 | 53.7 | 118 | 2 | Cn1cc(-c2cccc3cc(C4CCCN4c4nc(N)nc(N)c4C#N)c(N4CCOCC4)nc23)c2cc[nH]c2c1=O (stereo not drawn) [Compound 21] |  | 
0.938 | 12.5 | 9.07 | 18.2 | 53.9 | 1.43 | Cn1cc(-c2cccc3cc([C@@H]4CCCN4c4nc(N)nc(N)c4C#N)c(N4CCOCC4)nc23)c2cc[nH]c2c1=O [Compound 24] |  | 
1.56 | 446 | 148 | 1020 | 354 | 11.7 | Cc1cc(-c2cccc3cc(C4CCCN4c4ncnc(N)c4C#N)c(-c4ccccc4)nc23)cn(C)c1=O (stereo not drawn) [Compound 28] |  | 
